Measurements from patent publication US7829568B2, “Substituted 5,6,7,8-tetrahydroimidazo[1,2-a]pyridin-2-ylamine compounds and their use for producing drugs” (Gruenenthal GmbH, priority 2005, dated 2010).

Tested on: batrachotoxin (BTX) binding site of the sodium channel
Assay: Affinity to the batrachotoxin (BTX) binding site of the sodium channel
Design: species or system rat

Row | Compound | BTX inhibition (rat) (% inhibition) ([3H]-batrachotoxinin A20 α-benzoate 10 nM, synaptosomes from rat cerebral cortex, test concentration not given) | Kd (radioligand at BTX binding site, rat cerebral cortex synaptosomes)
1 | CCCCN(C(=O)c1cccc(Cl)c1)c1nc2n(c1C(=O)Nc1ccc(NC(=O)OC(C)(C)C)cc1)CCCC2 [Example 189, [4-({2-[butyl-(3-chloro-benzoyl)-amino]-5,6,7,8-tetrahydro-imidazo[1,2-a]pyridine-3-carbonyl}-amino)-phenyl]-carbamic acid tert-butyl ester] | 93% | 
2 | [^3H]-batrachotoxinin A20 α-benzoate [reference compound] |  | 24.6 ± 1.56 nM
